# The source made the active and inactive calls. No cut-off for these calls is given here.
# Experiments:
# [1] = biological target: Aurora kinase B (Homo sapiens) (UniProt Q96GD4); experiment: Disruption of mitotic localization of AURKB in human RPE-MYC H2B-GFP cells assessed as induction of mitotic arrest measured after 24 hrs by fluorescence high content cell imaging analysis; assay type: cell-based
# [2] = biological target: Aurora kinase B (Homo sapiens) (UniProt Q96GD4); experiment: Disruption of mitotic localization of AURKB in human RPE-MYC H2B-GFP cells assessed as induction of polyploidy by fluorescence high content cell imaging analysis; assay type: cell-based
# [3] = biological target: Aurora kinase B (Homo sapiens) (UniProt Q96GD4); experiment: Disruption of mitotic localization of AURKB in human RPE-MYC H2B-GFP cells assessed as mitotic index at 0.078 uM measured after 6 hrs by fluorescence high content cell imaging analysis (reference value: 4.7+/-0.4%); assay type: cell-based
# [4] = biological target: Aurora kinase B (Homo sapiens) (UniProt Q96GD4); experiment: Disruption of mitotic localization of AURKB in human RPE-MYC H2B-GFP cells assessed as mitotic index at 0.312 uM measured after 6 hrs by fluorescence high content cell imaging analysis (reference value: 4.7+/-0.4%); assay type: cell-based
# [5] = biological target: Aurora kinase B (Homo sapiens) (UniProt Q96GD4); experiment: Disruption of mitotic localization of AURKB in human RPE-MYC H2B-GFP cells assessed as proportion of polyploid cells in fully attached cell population at 0.312 uM measured after 48 hrs by fluorescence high content cell imaging analysis (Rvb <1%); assay type: cell-based
# [6] = biological target: Aurora kinase B (Homo sapiens) (UniProt Q96GD4); experiment: Disruption of mitotic localization of AURKB in human RPE-MYC H2B-GFP cells assessed as proportion of polyploid cells in fully attached cell population at 0.078 uM measured after 48 hrs by fluorescence high content cell imaging analysis (Rvb <1%); assay type: cell-based
# [7] = biological target: Aurora kinase B (Homo sapiens) (UniProt Q96GD4); experiment: Inhibition of AURKB in human RPE-MYC H2B-GFP cells assessed as inhibition of histone H3 phosphorylation at Ser10 residue by measuring residual enzyme activity at 0.078 uM measured after 6 hrs by immunofluorescence staining analysis (reference value: 100 +/-9%); assay type: cell-based
# [8] = biological target: T1, Aurora kinase A (Homo sapiens) (UniProt O14965); experiment: Inhibition of AURKA in human RPE-MYC H2B-GFP cells assessed as inhibition of autophosphorylation of AURKA at Thr288 residue by measuring residual enzyme activity at 0.156 uM measured after 6 hrs by immunofluorescence staining analysis (reference value: 100 +/-1%); assay type: cell-based
# T1 sequence (whole entry): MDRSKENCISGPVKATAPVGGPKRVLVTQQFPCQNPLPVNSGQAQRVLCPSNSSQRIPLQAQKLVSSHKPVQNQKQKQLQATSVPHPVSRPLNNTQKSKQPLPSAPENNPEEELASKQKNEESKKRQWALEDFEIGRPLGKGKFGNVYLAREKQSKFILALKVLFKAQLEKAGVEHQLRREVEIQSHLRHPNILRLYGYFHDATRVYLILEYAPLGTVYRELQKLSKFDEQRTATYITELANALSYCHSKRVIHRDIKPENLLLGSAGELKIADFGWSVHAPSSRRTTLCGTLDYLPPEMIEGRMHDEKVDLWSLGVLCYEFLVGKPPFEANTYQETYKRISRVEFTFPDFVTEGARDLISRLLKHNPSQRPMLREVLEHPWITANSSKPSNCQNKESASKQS
# [9] = biological target: Aurora kinase B (Homo sapiens) (UniProt Q96GD4); experiment: Disruption of mitotic localization of AURKB in human RPE-MYC H2B-GFP cells assessed as mitotic index at 0.156 uM measured after 6 hrs by fluorescence high content cell imaging analysis (reference value: 4.7+/-0.4%); assay type: cell-based
# [10] = biological target: Aurora kinase B (Homo sapiens) (UniProt Q96GD4); experiment: Inhibition of AURKB in human RPE-MYC H2B-GFP cells assessed as inhibition of histone H3 phosphorylation at Ser10 residue by measuring residual enzyme activity at 0.312 uM measured after 6 hrs by immunofluorescence staining analysis (reference value: 100 +/-9%); assay type: cell-based
# [11] = biological target: Aurora kinase B (Homo sapiens) (UniProt Q96GD4); experiment: Disruption of mitotic localization of AURKB in human RPE-MYC H2B-GFP cells assessed as proportion of polyploid cells in fully attached cell population at 0.156 uM measured after 48 hrs by fluorescence high content cell imaging analysis (Rvb <1%); assay type: cell-based
# [12] = biological target: T1, Aurora kinase A (Homo sapiens); experiment: Inhibition of AURKA in human RPE-MYC H2B-GFP cells assessed as inhibition of autophosphorylation of AURKA at Thr288 residue by measuring residual enzyme activity at 0.312 uM measured after 6 hrs by immunofluorescence staining analysis (reference value: 100 +/-1%); assay type: cell-based
# [13] = biological target: T1, Aurora kinase A (Homo sapiens); experiment: Inhibition of AURKA in human RPE-MYC H2B-GFP cells assessed as inhibition of autophosphorylation of AURKA at Thr288 residue by measuring residual enzyme activity at 0.078 uM measured after 6 hrs by immunofluorescence staining analysis (reference value: 100 +/-1%); assay type: cell-based
# [14] = biological target: Aurora kinase B (Homo sapiens) (UniProt Q96GD4); experiment: Inhibition of AURKB in human RPE-MYC H2B-GFP cells assessed as inhibition of histone H3 phosphorylation at Ser10 residue by measuring residual enzyme activity at 0.156 uM measured after 6 hrs by immunofluorescence staining analysis (reference value: 100 +/-9%); assay type: cell-based
# SW480 = experiment: Cytotoxicity against human SW480 cells assessed as cell growth inhibition incubated for 3 days by MTT assay; assay type: functional, cell-based; settings: time 3.0 day
# NCI-N87 = experiment: Cytotoxicity against human NCI-N87 cells assessed as cell growth inhibition incubated for 3 days by MTT assay; assay type: functional, cell-based; settings: time 3.0 day
# [15] = biological target: Aurora kinase B (Homo sapiens) (UniProt Q96GD4); experiment: Disruption of mitotic localization of AURKB in human RPE-MYC H2B-GFP cells assessed as induction of polyploidy by fluorescence high content cell imaging analysis relative to control; assay type: cell-based
# A549 = experiment: Cytotoxicity against human A549 cells assessed as cell growth inhibition incubated for 3 days by MTT assay; assay type: functional, cell-based; settings: time 3.0 day
# [16] = biological target: Aurora kinase B (Homo sapiens) (UniProt Q96GD4); experiment: Disruption of mitotic localization of AURKB at the spindle mid-zone and equatorial cortex in human RPE-MYC cells expressing BCL2 at 40 nM measured after 6 hrs by immunofluorescence staining analysis; assay type: cell-based
# [17] = biological target: Aurora kinase B (Homo sapiens) (UniProt Q96GD4); experiment: Inhibition of AURKB in human RPE-MYC H2B-GFP cells assessed as inhibition of histone H3 phosphorylation at Ser10 residue at 8XMEC measured after 6 hrs by immunofluorescence staining analysis; assay type: cell-based
# NCI-H23 = experiment: Cytotoxicity against human NCI-H23 cells assessed as cell growth inhibition incubated for 3 days by MTT assay; assay type: functional, cell-based; settings: time 3.0 day
# [18] = biological target: Aurora kinase B (Homo sapiens) (UniProt Q96GD4); experiment: Disruption of mitotic localization of AURKB in human RPE-MYC cells expressing BCL2 assessed as disruption of PLK1 localization at spindle mid-zone at 40 nM measured after 6 hrs by immunofluorescence staining analysis; assay type: cell-based
# [19] = biological target: T1, Aurora kinase A (Homo sapiens); experiment: Inhibition of AURKA in human RPE-MYC H2B-GFP cells assessed as inhibition of autophosphorylation of AURKA at Thr288 residue at 8XMEC measured after 6 hrs by immunofluorescence staining analysis; assay type: cell-based
# HeLa = experiment: Cytotoxicity against human HeLa cells assessed as cell growth inhibition incubated for 3 days by MTT assay; assay type: functional, cell-based; settings: time 3.0 day
# HCT-116 = experiment: Cytotoxicity against human HCT-116 cells assessed as cell growth inhibition incubated for 3 days by MTT assay; assay type: functional, cell-based; settings: time 3.0 day
# MDA-MB-231 = experiment: Cytotoxicity against human MDA-MB-231 cells assessed as cell growth inhibition incubated for 3 days by MTT assay; assay type: functional, cell-based; settings: time 3.0 day
# [20] = biological target: Aurora kinase B (Homo sapiens) (UniProt Q96GD4); experiment: Disruption of mitotic localization of AURKB in human RPE-MYC H2B-GFP cells assessed as induction of mitotic arrest by fluorescence high content cell imaging analysis; assay type: cell-based
# [21] = biological target: Aurora kinase B (Homo sapiens) (UniProt Q96GD4); experiment: Disruption of mitotic localization of AURKB in human RPE-MYC cells expressing BCL2 assessed as disruption of MKLP1 localization at spindle mid-zone at 40 nM measured after 6 hrs by immunofluorescence staining analysis; assay type: cell-based
# Chain of Aurora kinase B (Homo sapiens) (Q96GD4 whole entry): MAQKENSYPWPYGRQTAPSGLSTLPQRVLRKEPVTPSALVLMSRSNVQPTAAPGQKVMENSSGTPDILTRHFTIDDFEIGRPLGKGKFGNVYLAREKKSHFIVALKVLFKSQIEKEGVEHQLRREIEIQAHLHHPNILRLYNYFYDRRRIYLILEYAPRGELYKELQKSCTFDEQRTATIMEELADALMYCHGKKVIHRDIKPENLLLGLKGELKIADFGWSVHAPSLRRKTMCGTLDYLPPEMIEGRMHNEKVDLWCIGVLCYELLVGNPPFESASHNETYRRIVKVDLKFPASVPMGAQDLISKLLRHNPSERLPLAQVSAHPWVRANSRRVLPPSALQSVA
Compound,MEC [1],MEC [2],further results
COC(=O)c1cc2c(Oc3cc(OC)cc(-n4cccn4)c3)ccnc2cc1OC,0.039 µM,0.078 µM,–
COc1cc(Oc2ccnc3cc(C(F)(F)F)ccc23)cc(-n2cccn2)c1,> 40 µM,> 40 µM,–
COC(=O)c1ccc(OC)c(Oc2ccnc3ccccc23)c1,0.625 µM,0.625 µM,–
Cc1csc(-c2nnc(Nc3ccc(Oc4ccnc5ccccc45)cc3)c3ccccc23)c1,–,–,Activity [3]: 11%; Activity [4]: 10.1%; Activity [5]: 100%; Activity [6]: 100%; Activity [7]: 98%; Activity [8]: 100%; Activity [9]: 9.8%; Activity [10]: 0%; Activity [11]: 100%; Activity [12]: 100%; Activity [13]: 100%; Activity [14]: 21.4%
COc1cc(NC(C)=O)cc(Oc2ccnc3cc(OC)c(OC)cc23)c1,0.039 µM,0.078 µM,–
COc1cccc(Oc2ccnc3ccccc23)c1,5 µM,5 µM,–
Nc1cccc(Oc2ccnc3ccccc23)c1,40 µM,40 µM,–
COc1ccc(Oc2ccnc3ccccc23)cc1,> 40 µM,> 40 µM,–
COc1cc(OC)cc(Oc2ccnc3ccccc23)c1,0.078 µM,0.078 µM,–
CNC(=O)c1cc(OC)cc(Oc2ccnc3ccccc23)c1,0.625 µM,1.25 µM,–
COc1cc(Oc2ccnc3ccccc23)cc(C(F)(F)F)c1,1.25 µM,1.25 µM,–
O=C(NC1CCCC1)c1cccc(Oc2ccnc3ccccc23)c1,> 40 µM,> 40 µM,–
COc1cc(Oc2ccnc3ccccc23)cc(C(=O)O)c1,> 40 µM,> 40 µM,–
O=Cc1cccc(Oc2ccnc3ccccc23)c1,> 40 µM,> 40 µM,–
COC(=O)c1cccc(Oc2ccnc3ccccc23)c1,10 µM,10 µM,–
COC(=O)c1cc(OC)cc(Oc2ccnc3ccccc23)c1,0.02 µM,0.02 µM,–

Compound,MEC [1],MEC [2],further results
COc1cc(Oc2ccnc3cc(Cl)ccc23)cc(-n2cccn2)c1,20 µM,20 µM,–
CC(=O)c1cccc(Oc2ccnc3ccccc23)c1,10 µM,10 µM,–
COc1cc(NC(C)=O)cc(Oc2ccnc3cc(OC)c(C(N)=O)cc23)c1,0.625 µM,0.625 µM,–
COc1cc(Oc2ccnc3ccc(OC)cc23)cc(-n2cccn2)c1,0.012 µM,0.012 µM,Activity (SW480): Active; Activity (NCI-N87): Active; Activity [15]: 100%; Activity (A549): Active; Activity [16]: Active; inhibition [17]: < 40%; Activity (NCI-H23): Active; Activity [18]: Active; inhibition [19]: < 40%; Activity (HeLa): Active; Activity (HCT-116): Active; Activity (MDA-MB-231): Active; Activity [20]: inactive; Activity [21]: Active
COC(=O)c1ccc(Oc2ccnc3ccccc23)cc1,40 µM,40 µM,–
COC(=O)c1cc2c(Oc3cc(NC(C)=O)cc(OC)c3)ccnc2cc1OC,1.25 µM,1.25 µM,–
COc1cc(Oc2ccnc3ccccc23)cc(-n2cccn2)c1,0.078 µM,0.078 µM,–
COc1cc(Oc2ccnc3ccc(F)cc23)cc(-n2cccn2)c1,0.052 µM,0.052 µM,–
c1ccc(Oc2ccnc3ccccc23)cc1,> 40 µM,> 40 µM,–
COc1cc(NC(C)=O)cc(Oc2ccnc3ccccc23)c1,0.078 µM,0.078 µM,–
COc1cc(NC(C)=O)cc(Oc2ccnc3ccc(F)cc23)c1,0.01 µM,0.01 µM,Activity (SW480): Active; Activity (NCI-N87): Active; Activity [15]: 100%; Activity (A549): Active; Activity [16]: Active; inhibition [17]: < 40%; Activity (NCI-H23): Active; Activity [18]: Active; inhibition [19]: < 40%; Activity (HeLa): Active; Activity (HCT-116): Active; Activity (MDA-MB-231): Active; Activity [20]: inactive; Activity [21]: Active
COc1cc(Oc2ccnc3ccccc23)cc(-c2nc(C)no2)c1,0.625 µM,0.625 µM,–
CCOC(=O)c1cccc(Oc2ccnc3ccccc23)c1,10 µM,10 µM,–
COc1cc(Oc2ccnc3cc(OC)ccc23)cc(-n2cccn2)c1,5 µM,5 µM,–
COc1cc(Oc2ccnc3cc(OC)c(OC)cc23)cc(-n2cccn2)c1,0.012 µM,0.012 µM,Activity (SW480): Active; Activity (NCI-N87): Active; Activity [15]: 100%; Activity (A549): Active; Activity [16]: Active; inhibition [17]: < 40%; Activity (NCI-H23): Active; Activity [18]: Active; inhibition [19]: < 40%; Activity (HeLa): Active; Activity (HCT-116): Active; Activity (MDA-MB-231): Active; Activity [20]: inactive; Activity [21]: Active
